Results as given in ChEMBL document CHEMBL4507317, “Data for DCP probe BAY-899” (2021).

Tests used:
[1] = biological target: Serine/threonine-protein kinase D1 (Homo sapiens) (UniProt Q15139); conditions: Compound concentration 1000.0 nM
[2] = test system: Epidermal growth factor receptor (Homo sapiens), P00533 [T790M]; conditions: Compound concentration 1000.0 nM
[3] = biological target: Homeodomain-interacting protein kinase 4 (Homo sapiens) (UniProt Q8NE63); conditions: Compound concentration 1000.0 nM
[4] = biological target: Casein kinase I isoform gamma-1 (Homo sapiens) (UniProt Q9HCP0); conditions: Compound concentration 1000.0 nM
[5] = biological target: Tyrosine-protein kinase TXK (Homo sapiens) (UniProt P42681); conditions: Compound concentration 1000.0 nM
[6] = biological target: SNF-related serine/threonine-protein kinase (Homo sapiens) (UniProt Q9NRH2); conditions: Compound concentration 1000.0 nM
[7] = test system: Tyrosine-protein kinase ABL1 (Homo sapiens), P00519 [T315I]; conditions: Compound concentration 1000.0 nM
[8] = biological target: Death-associated protein kinase 3 (Homo sapiens) (UniProt O43293); conditions: Compound concentration 1000.0 nM
[9] = biological target: Serine/threonine-protein kinase Chk2 (Homo sapiens) (UniProt O96017); conditions: Compound concentration 1000.0 nM
[10] = biological target: Ribosomal protein S6 kinase alpha-6 (Homo sapiens) (UniProt Q9UK32); conditions: Compound concentration 1000.0 nM
[11] = biological target: Serine/threonine-protein kinase STK11 (Homo sapiens) (UniProt Q15831); conditions: Compound concentration 1000.0 nM
[12] = biological target: Serine/threonine-protein kinase Nek3 (Homo sapiens) (UniProt P51956); conditions: Compound concentration 1000.0 nM
[13] = biological target: Muscarinic acetylcholine receptor M5 (Homo sapiens) (UniProt P08912); conditions: Compound concentration 10.0 uM
[14] = biological target: Testis-specific serine/threonine-protein kinase 1 (Homo sapiens) (UniProt Q9BXA7); conditions: Compound concentration 1000.0 nM
[15] = test system: Hepatocyte growth factor receptor (Homo sapiens), P08581 [Y1235D]; conditions: Compound concentration 1000.0 nM
[16] = biological target: Mitogen-activated protein kinase kinase kinase 4 (Homo sapiens) (UniProt Q9Y6R4); conditions: Compound concentration 1000.0 nM
[17] = biological target: Serine/threonine-protein kinase PLK3 (Homo sapiens) (UniProt Q9H4B4); conditions: Compound concentration 1000.0 nM
[18] = biological target: Serine/threonine-protein kinase LATS1 (Homo sapiens) (UniProt O95835); conditions: Compound concentration 1000.0 nM
[19] = biological target: 5-hydroxytryptamine receptor 2A (Homo sapiens, UniProt P28223); conditions: Compound concentration 10.0 uM
[20] = biological target: Insulin receptor-related protein (Homo sapiens) (UniProt P14616); conditions: Compound concentration 1000.0 nM
[21] = biological target: Angiopoietin-1 receptor (Homo sapiens) (UniProt Q02763); conditions: Compound concentration 1000.0 nM
[22] = biological target: Cyclin-dependent kinase 7 (Homo sapiens) (UniProt P50613); conditions: Compound concentration 1000.0 nM
[23] = biological target: Activin receptor type-1B (Homo sapiens) (UniProt P36896); conditions: Compound concentration 1000.0 nM
[24] = biological target: Casein kinase I isoform delta (Homo sapiens) (UniProt P48730); conditions: Compound concentration 1000.0 nM
[25] = biological target: Cyclin-dependent kinase 18 (Homo sapiens) (UniProt Q07002); conditions: Compound concentration 1000.0 nM
[26] = biological target: Testis-specific serine/threonine-protein kinase 3 (Homo sapiens) (UniProt Q96PN8); conditions: Compound concentration 1000.0 nM
[27] = biological target: Death-associated protein kinase 1 (Homo sapiens) (UniProt P53355); conditions: Compound concentration 1000.0 nM
[28] = biological target: Serine/threonine-protein kinase TAO3 (Homo sapiens) (UniProt Q9H2K8); conditions: Compound concentration 1000.0 nM
[29] = biological target: Serine/threonine-protein kinase SIK2 (Homo sapiens) (UniProt Q9H0K1); conditions: Compound concentration 1000.0 nM
[30] = test system: Phosphatidylinositol 4,5-bisphosphate 3-kinase catalytic subunit alpha isoform (Homo sapiens), P42336 [E545K]; conditions: Compound concentration 1000.0 nM
[31] = biological target: Calcium/calmodulin-dependent protein kinase kinase 2 (Homo sapiens) (UniProt Q96RR4); conditions: Compound concentration 1000.0 nM
[32] = biological target: Rho-associated protein kinase 1 (Homo sapiens) (UniProt Q13464); conditions: Compound concentration 1000.0 nM
[33] = biological target: MAP/microtubule affinity-regulating kinase 3 (Homo sapiens) (UniProt P27448); conditions: Compound concentration 1000.0 nM
[34] = biological target: Mitogen-activated protein kinase kinase kinase 1 (Homo sapiens) (UniProt Q13233); conditions: Compound concentration 1000.0 nM
[35] = biological target: LIM domain kinase 2 (Homo sapiens) (UniProt P53671); conditions: Compound concentration 1000.0 nM
[36] = biological target: Protein kinase C delta type (Homo sapiens) (UniProt Q05655); conditions: Compound concentration 1000.0 nM
[37] = biological target: Death-associated protein kinase 2 (Homo sapiens) (UniProt Q9UIK4); conditions: Compound concentration 1000.0 nM
[38] = biological target: Receptor tyrosine-protein kinase erbB-3 (Homo sapiens) (UniProt P21860); conditions: Compound concentration 1000.0 nM
[39] = biological target: G protein-coupled receptor kinase 3 (Homo sapiens) (UniProt P35626); conditions: Compound concentration 1000.0 nM
[40] = biological target: Serine/threonine-protein kinase tousled-like 2 (Homo sapiens) (UniProt Q86UE8); conditions: Compound concentration 1000.0 nM
[41] = biological target: Serine/threonine-protein kinase WNK2 (Homo sapiens) (UniProt Q9Y3S1); conditions: Compound concentration 1000.0 nM
[42] = biological target: Serine/threonine-protein kinase 10 (Homo sapiens) (UniProt O94804); conditions: Compound concentration 1000.0 nM
[43] = biological target: Serine/threonine-protein kinase TAO2 (Homo sapiens) (UniProt Q9UL54); conditions: Compound concentration 1000.0 nM
[44] = test system: Receptor-type tyrosine-protein kinase FLT3 (Homo sapiens), P36888 [D835Y]; conditions: Compound concentration 1000.0 nM
[45] = biological target: Mu-type opioid receptor (Homo sapiens) (UniProt P35372); conditions: Compound concentration 10.0 uM

Sequence of Serine/threonine-protein kinase SIK2 (Homo sapiens) (Q9H0K1 whole entry, looked up, canonical isoform): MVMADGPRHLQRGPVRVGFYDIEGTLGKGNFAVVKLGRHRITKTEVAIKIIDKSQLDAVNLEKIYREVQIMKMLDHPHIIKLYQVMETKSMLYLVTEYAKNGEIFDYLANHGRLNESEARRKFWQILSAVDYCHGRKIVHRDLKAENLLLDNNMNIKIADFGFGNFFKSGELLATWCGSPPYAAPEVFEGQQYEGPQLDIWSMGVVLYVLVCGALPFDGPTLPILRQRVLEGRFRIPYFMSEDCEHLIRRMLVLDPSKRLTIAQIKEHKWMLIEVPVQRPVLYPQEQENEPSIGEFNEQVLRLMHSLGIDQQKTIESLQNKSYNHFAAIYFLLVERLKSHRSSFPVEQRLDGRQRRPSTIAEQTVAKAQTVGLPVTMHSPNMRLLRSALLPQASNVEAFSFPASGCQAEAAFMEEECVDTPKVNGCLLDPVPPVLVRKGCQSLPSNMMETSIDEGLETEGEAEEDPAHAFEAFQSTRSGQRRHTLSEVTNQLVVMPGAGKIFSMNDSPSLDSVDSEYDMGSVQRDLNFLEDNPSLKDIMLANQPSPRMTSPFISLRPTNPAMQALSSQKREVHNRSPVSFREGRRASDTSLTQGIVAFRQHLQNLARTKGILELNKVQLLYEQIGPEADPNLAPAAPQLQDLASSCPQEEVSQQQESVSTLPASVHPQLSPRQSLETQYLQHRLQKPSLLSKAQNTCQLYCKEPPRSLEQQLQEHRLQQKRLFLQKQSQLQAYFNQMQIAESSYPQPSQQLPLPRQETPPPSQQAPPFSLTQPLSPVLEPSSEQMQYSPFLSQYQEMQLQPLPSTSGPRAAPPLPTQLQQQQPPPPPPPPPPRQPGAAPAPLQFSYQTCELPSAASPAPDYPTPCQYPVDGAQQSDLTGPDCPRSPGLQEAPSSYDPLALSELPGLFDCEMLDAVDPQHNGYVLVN
Sequence of Testis-specific serine/threonine-protein kinase 1 (Homo sapiens) (Q9BXA7 whole entry): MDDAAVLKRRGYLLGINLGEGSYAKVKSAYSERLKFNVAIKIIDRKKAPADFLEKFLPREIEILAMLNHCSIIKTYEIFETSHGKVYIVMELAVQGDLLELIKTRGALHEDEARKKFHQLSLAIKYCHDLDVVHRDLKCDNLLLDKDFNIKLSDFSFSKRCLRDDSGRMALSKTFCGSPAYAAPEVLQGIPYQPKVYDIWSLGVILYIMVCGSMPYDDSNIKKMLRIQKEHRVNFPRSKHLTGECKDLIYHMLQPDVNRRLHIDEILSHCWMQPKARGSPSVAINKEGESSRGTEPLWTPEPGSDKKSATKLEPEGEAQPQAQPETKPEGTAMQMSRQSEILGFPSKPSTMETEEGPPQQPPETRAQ
Sequence of 5-hydroxytryptamine receptor 2A (P28223 whole entry): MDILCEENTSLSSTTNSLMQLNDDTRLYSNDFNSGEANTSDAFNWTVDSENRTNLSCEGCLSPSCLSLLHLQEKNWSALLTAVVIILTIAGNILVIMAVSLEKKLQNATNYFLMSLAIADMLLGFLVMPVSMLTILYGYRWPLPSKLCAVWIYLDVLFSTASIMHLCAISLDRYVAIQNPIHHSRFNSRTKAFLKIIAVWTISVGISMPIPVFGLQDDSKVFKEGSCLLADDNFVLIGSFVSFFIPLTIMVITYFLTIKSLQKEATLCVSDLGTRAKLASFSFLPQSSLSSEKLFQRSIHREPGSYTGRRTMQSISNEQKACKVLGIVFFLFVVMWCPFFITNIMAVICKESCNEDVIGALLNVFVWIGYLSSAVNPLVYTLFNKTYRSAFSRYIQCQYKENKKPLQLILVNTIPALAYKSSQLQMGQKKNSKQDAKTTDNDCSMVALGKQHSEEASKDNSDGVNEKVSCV
Sequence of Mitogen-activated protein kinase kinase kinase 4 (Homo sapiens) (Q9Y6R4 whole entry): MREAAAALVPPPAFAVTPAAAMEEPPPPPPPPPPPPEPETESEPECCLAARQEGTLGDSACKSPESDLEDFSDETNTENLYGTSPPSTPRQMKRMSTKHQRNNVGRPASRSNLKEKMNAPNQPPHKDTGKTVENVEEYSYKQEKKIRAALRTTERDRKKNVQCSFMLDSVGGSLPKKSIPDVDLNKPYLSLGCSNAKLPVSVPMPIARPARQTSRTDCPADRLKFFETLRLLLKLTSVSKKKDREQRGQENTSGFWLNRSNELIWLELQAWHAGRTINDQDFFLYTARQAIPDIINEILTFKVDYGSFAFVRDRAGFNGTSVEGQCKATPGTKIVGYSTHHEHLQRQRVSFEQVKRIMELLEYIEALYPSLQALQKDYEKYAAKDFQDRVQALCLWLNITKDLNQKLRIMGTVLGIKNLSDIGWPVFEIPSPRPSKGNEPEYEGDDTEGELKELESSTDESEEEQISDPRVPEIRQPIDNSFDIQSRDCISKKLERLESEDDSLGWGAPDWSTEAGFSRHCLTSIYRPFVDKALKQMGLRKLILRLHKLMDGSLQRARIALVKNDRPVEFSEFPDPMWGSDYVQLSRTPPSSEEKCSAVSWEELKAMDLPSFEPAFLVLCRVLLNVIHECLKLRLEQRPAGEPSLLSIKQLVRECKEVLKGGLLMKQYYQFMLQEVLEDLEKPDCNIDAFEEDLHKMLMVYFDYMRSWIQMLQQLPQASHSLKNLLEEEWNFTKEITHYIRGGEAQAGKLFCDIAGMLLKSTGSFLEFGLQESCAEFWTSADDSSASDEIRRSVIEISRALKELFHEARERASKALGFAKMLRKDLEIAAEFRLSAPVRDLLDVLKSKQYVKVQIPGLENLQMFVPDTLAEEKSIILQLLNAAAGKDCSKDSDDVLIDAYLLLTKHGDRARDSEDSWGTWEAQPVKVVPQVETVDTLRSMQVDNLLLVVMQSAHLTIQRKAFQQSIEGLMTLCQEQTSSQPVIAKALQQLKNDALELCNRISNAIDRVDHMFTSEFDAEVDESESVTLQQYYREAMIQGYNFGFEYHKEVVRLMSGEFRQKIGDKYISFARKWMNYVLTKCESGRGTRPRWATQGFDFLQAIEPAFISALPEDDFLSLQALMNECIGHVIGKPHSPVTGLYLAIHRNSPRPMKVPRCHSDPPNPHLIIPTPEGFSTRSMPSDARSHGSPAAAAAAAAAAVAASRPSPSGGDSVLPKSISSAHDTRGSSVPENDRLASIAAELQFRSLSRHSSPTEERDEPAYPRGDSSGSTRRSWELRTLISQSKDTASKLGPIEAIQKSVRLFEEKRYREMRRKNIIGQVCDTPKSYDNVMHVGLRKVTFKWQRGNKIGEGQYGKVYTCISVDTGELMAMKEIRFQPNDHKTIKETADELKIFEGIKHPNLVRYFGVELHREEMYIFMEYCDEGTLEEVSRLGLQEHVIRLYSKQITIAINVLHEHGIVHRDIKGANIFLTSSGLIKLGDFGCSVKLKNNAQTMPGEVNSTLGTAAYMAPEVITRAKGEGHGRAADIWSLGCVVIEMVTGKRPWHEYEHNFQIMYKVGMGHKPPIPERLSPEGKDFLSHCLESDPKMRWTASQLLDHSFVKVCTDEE
Sequence of Serine/threonine-protein kinase TAO3 (Homo sapiens) (Q9H2K8 whole entry): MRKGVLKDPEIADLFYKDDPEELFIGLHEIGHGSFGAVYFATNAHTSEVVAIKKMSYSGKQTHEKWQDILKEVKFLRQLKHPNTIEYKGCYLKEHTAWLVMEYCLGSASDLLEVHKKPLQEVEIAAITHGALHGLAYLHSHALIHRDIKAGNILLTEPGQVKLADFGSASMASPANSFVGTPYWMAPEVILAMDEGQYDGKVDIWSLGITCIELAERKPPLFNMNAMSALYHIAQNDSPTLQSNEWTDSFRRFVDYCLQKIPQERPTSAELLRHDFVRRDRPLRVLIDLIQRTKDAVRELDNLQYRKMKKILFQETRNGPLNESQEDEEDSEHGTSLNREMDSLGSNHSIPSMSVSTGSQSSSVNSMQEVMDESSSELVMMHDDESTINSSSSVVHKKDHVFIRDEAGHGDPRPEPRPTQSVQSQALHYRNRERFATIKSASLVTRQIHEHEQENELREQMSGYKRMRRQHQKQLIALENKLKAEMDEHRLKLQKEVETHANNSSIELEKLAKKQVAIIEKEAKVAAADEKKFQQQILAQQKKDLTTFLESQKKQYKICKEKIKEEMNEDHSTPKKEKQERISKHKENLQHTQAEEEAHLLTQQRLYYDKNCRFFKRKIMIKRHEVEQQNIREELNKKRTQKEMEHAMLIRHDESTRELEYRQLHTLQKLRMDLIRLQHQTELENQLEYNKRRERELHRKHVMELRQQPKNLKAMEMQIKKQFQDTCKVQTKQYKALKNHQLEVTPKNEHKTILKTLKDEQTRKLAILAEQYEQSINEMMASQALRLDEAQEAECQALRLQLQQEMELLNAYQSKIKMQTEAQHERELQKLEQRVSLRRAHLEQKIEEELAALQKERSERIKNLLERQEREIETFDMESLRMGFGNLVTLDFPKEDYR
Sequence of Protein kinase C delta type (Homo sapiens) (Q05655 whole entry, looked up): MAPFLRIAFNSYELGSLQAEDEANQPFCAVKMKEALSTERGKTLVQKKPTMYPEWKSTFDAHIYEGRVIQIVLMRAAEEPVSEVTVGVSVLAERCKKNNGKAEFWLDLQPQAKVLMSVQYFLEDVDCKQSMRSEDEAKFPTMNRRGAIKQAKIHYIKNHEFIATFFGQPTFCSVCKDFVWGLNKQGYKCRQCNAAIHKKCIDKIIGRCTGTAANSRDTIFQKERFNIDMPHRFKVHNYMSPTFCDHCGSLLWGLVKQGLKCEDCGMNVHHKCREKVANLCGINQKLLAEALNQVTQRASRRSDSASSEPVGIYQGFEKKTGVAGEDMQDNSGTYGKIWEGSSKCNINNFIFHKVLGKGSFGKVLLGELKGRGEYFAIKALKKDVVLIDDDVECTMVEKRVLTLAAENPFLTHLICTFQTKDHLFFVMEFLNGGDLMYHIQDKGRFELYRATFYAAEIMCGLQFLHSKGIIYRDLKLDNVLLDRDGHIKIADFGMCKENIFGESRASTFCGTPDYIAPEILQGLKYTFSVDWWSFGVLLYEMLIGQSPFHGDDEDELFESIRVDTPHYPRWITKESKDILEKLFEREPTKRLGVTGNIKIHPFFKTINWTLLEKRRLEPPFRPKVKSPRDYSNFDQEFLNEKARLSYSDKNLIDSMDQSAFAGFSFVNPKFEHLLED

`O=C(Nc1ccc(Oc2ccc(F)cc2)cc1)N1CCc2ncccc2[C@H]1c1ccc(F)cc1` [BAY-897] showed a residual activity [1] of 94%, a residual activity [2] of 87% and a residual activity [3] of 96%. For the same compound, the residual activity [4] was 90%, the residual activity [5] was 100% and the residual activity [6] was 90%. For the same compound, the residual activity [7] was 85%, the residual activity [8] was 100% and the residual activity [9] was 94%. For the same compound, the residual activity [10] was 95%, the residual activity [11] was 61% and the residual activity [12] was 64%. It also gave an inhibition [13] of -1.7%, a residual activity [14] of 87% and a residual activity [15] of 86%. It also gave a residual activity [16] of 100%, a residual activity [17] of 87% and a residual activity [18] of 86%. For the same compound, the inhibition [19] was 54.5%, the residual activity [20] was 94% and the residual activity [21] was 100%. For the same compound, the residual activity [22] was 77%, the residual activity [23] was 94% and the residual activity [24] was 90%. The residual activity [25] was 98%, the residual activity [26] was 98% and the residual activity [27] was 87%. For the same compound, the residual activity [28] was 92%, the residual activity [29] was 100% and the residual activity [30] was 73%. The residual activity [31] was 100%, the residual activity [32] was 100% and the residual activity [33] was 100%. The residual activity [34] was 87%, the residual activity [35] was 93% and the residual activity [36] was 100%. It also gave a residual activity [37] of 100%, a residual activity [38] of 100% and a residual activity [39] of 95%. For the same compound, the residual activity [40] was 100%, the residual activity [41] was 88% and the residual activity [42] was 100%. The residual activity [43] was 100%, the residual activity [44] was 99% and the inhibition [45] was 37.1%.

For `O=C(Nc1cnc(Oc2ccc(F)cc2)nc1)N1CCc2ncccc2[C@@H]1c1ccc(F)cc1` [BAY-899], the residual activity [1] was 100%, the residual activity [2] was 91% and the residual activity [3] was 100%. It also gave a residual activity [4] of 99%, a residual activity [5] of 87% and a residual activity [6] of 90%. For the same compound, the residual activity [7] was 77%, the residual activity [8] was 100% and the residual activity [9] was 92%. For the same compound, the residual activity [10] was 82%, the residual activity [11] was 75% and the residual activity [12] was 67%. It also gave an inhibition [13] of 12%, a residual activity [14] of 100% and a residual activity [15] of 93%. The residual activity [16] was 89%, the residual activity [17] was 87% and the residual activity [18] was 100%. For the same compound, the inhibition [19] was 8.72%, the residual activity [20] was 84% and the residual activity [21] was 93%. For the same compound, the residual activity [22] was 100%, the residual activity [23] was 100% and the residual activity [24] was 100%. It also gave a residual activity [25] of 96%, a residual activity [26] of 86% and a residual activity [27] of 78%. For the same compound, the residual activity [28] was 100%, the residual activity [29] was 89% and the residual activity [30] was 63%. It also gave a residual activity [31] of 93%, a residual activity [32] of 100% and a residual activity [33] of 100%. It also gave a residual activity [34] of 89%, a residual activity [35] of 97% and a residual activity [36] of 87%. The residual activity [37] was 91%, the residual activity [38] was 100% and the residual activity [39] was 96%. For the same compound, the residual activity [40] was 89%, the residual activity [41] was 79% and the residual activity [42] was 94%. For the same compound, the residual activity [43] was 87%, the residual activity [44] was 100% and the inhibition [45] was 28.1%.
